Assays:
Test in all cases: relative viability (nuclei count vs DMSO), 5 days (fraction); higher = more cells survive
[1] = compound: CC1=CC(=NN1)NC2=CC(=NC(=N2)/C=C/C3=CC=CC=C3)N4CCN(CC4)C + NC(=O)Nc1cc(-c2cccc(F)c2)sc1C(=O)N[C@H]1CCCNC1 [AZD7762] (partner 0.2 µM)
Outline: (§1)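 Each reported value is a median over duplicate plates. It expresses relative viability: treated-well nuclei count divided by vehicle-well nuclei count. Lung cancer cell lines in 1536-well plates were dosed by pin tool a day after seeding, alone with one drug or with a fixed anchor-drug dose plus five library-drug doses (not always all listed) in √10 steps, and nuclei were counted after 5 days.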

[2] = compound: COC1=CC(c2cc3ccccc3[nH]2)=N/C1=C\c1[nH]c(C)cc1C [Obatoclax] + Nc1ncn([C@H]2C[C@H](O)[C@@H](CO)O2)c(=O)n1 [Decitabine] (partner 2 µM)
Outline: as §1

[3] = compound: CC1=CC(=NN1)NC2=CC(=NC(=N2)/C=C/C3=CC=CC=C3)N4CCN(CC4)C + CC(=O)c1c(C)c2cnc(Nc3ccc(N4CCNCC4)cn3)nc2n(C2CCCC2)c1=O [Palbociclib] (partner 0.5 µM)
Outline: as §1

[4] = compound: CC1=CC(=NN1)NC2=CC(=NC(=N2)/C=C/C3=CC=CC=C3)N4CCN(CC4)C + Nc1ncn([C@H]2C[C@H](O)[C@@H](CO)O2)c(=O)n1 [Decitabine] (partner 2 µM)
Outline: as §1

| Cell Line | relative viability ([1]; first compound 0.08 µM) | relative viability ([1]; first compound 0.253 µM) | relative viability ([1]; first compound 0.8 µM) | relative viability ([1]; first compound 2.53 µM) | relative viability ([1]; first compound 8 µM) | relative viability ([2]; first compound 0.01 µM) | relative viability ([2]; first compound 0.03162 µM) | relative viability ([2]; first compound 0.1 µM) | relative viability ([2]; first compound 0.3162 µM) | relative viability ([2]; first compound 1 µM) | relative viability ([3]; first compound 0.08 µM) | relative viability ([3]; first compound 0.253 µM) | relative viability ([3]; first compound 0.8 µM) | relative viability ([3]; first compound 2.53 µM) | relative viability ([3]; first compound 8 µM) | relative viability ([4]; first compound 0.08 µM) | relative viability ([4]; first compound 0.253 µM) | relative viability ([4]; first compound 0.8 µM) | relative viability ([4]; first compound 2.53 µM) | relative viability ([4]; first compound 8 µM) |
| --- | --- | --- | --- | --- | --- | --- | --- | --- | --- | --- | --- | --- | --- | --- | --- | --- | --- | --- | --- | --- |
| LC-2-ad | 0.778 | 0.928 | 0.676 | 0.16 | 0.12 | 0.706 | 0.784 | 0.82 | 0.742 | 0.847 | 0.552 | 0.488 | 0.413 | 0.298 | 0.18 | 0.821 | 0.809 | 0.744 | 0.463 | 0.187 |
| NCI-H596 | 1.07 | 1.14 | 1.04 | 0.583 | 0.279 | 0.953 | 0.986 | 1.04 | 0.848 | 0.79 | – | – | – | – | – | 1.17 | 1.01 | 0.889 | 0.659 | 0.364 |
| NCI-H1437 | 1.17 | 1.17 | 1.21 | 1.05 | 0.416 | 0.626 | 0.426 | 0.601 | 0.537 | 0.43 | 0.304 | 0.317 | 0.307 | 0.231 | 0.152 | 0.523 | 0.583 | 0.555 | 0.499 | 0.255 |
| NCI-H727 | 0.571 | 0.427 | 0.601 | 0.55 | 0.381 | 0.916 | 0.731 | 0.798 | 0.591 | 0.872 | 0.641 | 0.628 | 0.672 | 0.691 | 0.409 | 0.515 | 0.699 | 0.882 | 0.793 | 0.412 |

— the supplement of paper PMC10307832
